Results published in patent US20030232822A1, “Indole derivatives useful for the treatment of CNS disorders” (H. Lundbeck A/S, priority 2000, published 2003).
Where a name gives a salt, the structure may show the parent alone. Read-outs that look alike come from different tables or passages of the source.

Tests used:
[1] = molecular target: T1, dopamine D4 receptors (Homo sapiens, UniProt P21917); details: various in vitro efficacy assays, Gazi et al.; cited from earlier work
T1 sequence (P21917 1-419): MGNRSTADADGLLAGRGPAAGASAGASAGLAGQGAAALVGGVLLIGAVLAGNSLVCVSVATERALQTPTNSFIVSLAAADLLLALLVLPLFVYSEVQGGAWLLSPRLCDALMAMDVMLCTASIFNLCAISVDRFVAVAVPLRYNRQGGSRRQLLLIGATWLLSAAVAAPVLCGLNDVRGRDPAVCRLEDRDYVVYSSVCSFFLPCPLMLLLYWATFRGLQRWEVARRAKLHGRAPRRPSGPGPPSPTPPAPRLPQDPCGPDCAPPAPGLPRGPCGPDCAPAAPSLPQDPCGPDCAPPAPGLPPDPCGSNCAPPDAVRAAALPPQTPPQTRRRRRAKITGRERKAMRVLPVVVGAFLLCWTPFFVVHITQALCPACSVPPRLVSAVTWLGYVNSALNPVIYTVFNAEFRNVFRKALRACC

[2] = molecular target: T2, human cloned dopamine D4.2 receptors (Homo sapiens, UniProt P21917, DEL265-296); experiment: Inhibition of the binding of [3H]YM-09151-2 to human dopamine D4.2 receptors; details: [3H]YM-09151-2 0.06 nM, membranes of CHO-cells; for D4-binding (% inhibition): at 50 nM
T2 construct: expressed in transfected cells; host or cells: CHO cells
T2 sequence (P21917 with tags, fused parts or gaps DEL265-296): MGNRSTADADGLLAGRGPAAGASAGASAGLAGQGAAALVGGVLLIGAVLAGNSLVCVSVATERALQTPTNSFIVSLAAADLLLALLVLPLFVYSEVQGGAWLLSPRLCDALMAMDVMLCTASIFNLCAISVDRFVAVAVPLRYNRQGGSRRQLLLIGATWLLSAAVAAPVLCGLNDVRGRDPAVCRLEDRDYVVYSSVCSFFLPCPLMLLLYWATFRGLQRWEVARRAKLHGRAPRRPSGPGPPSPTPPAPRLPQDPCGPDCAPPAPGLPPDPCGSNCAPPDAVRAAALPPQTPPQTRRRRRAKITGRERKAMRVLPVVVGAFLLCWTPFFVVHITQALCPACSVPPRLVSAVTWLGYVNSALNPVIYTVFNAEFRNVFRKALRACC
Description: Inhibition of the Binding of [^3H]YM-09151-2 to Human Dopamine D4.2 Receptors
By this method, the inhibition by drugs of the binding of [^3H]YM-09151-2 (0.06 nM) to membranes of human cloned dopamine D4.2 receptors expressed in CHO-cells is determined in vitro. Method modified from NEN Life Science Products, Inc., technical data certificate PC2533-10/96.

[3] = molecular target: T3, 5-HT2A receptors (Rattus norvegicus, UniProt P14842); experiment: Inhibition of the binding of [3H]Ketanserin to 5-HT2A receptors; details: for inhibition at 0.1 µM: read-out: 5-HT2A-binding (% inhibition); for 5-HT2A-binding (% inhibition): at 100 nM
T3 construct: membranes from rat brain (cortex) in vitro; from tissue; host or cells: rat brain cortex membranes
Description: Inhibition of the Binding of [^3H]Ketanserin to 5-HT2A Receptors
The compounds were tested with respect to their affinity for 5-HT2A receptors by determining their ability to inhibit the binding of [^3H]Ketanserin (0.50 nM) to membranes from rat brain (cortex) in vitro. Method described in Sanchez et al. Drug Dev. Res. 1991, 22, 239-250.

[4] = [3H]Ketanserin 0.50 nM, membranes from rat brain (cortex), read-out: 5-HT2A-binding (IC50)
[5] = [3H]Ketanserin 0.50 nM, membranes from rat brain (cortex)

T3 sequence (P14842 whole entry): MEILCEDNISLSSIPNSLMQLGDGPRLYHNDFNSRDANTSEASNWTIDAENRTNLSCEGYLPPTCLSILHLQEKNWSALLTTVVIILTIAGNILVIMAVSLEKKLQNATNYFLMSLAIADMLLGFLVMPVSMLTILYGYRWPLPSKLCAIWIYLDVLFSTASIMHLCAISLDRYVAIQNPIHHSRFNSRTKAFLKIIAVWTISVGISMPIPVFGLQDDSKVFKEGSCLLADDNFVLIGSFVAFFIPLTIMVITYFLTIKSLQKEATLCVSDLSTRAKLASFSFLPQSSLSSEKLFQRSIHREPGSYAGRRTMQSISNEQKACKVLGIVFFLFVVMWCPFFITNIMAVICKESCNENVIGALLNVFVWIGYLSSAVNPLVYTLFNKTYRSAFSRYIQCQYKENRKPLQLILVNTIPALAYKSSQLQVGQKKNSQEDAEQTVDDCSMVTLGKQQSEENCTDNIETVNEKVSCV

SMILES	IC50 [2] [µM]	IC50 [3, 4] [µM]	D4-binding (% inhibition) [2] [% at 50 nM]	other results
CC(C)Oc1cccnc1N(C)C1CCN(Cc2ccccc2)CC1 [Compound U-101958]	–	–	–	Functional activity at D4 receptor (literature) [1]: partial D4 receptor agonists
O=C1CCc2ccccc2N1CCCN1CCN(c2ccc3cc[nH]c3c2)CC1 [Compound 2c]	–	0.032	94	–
O=C1CCc2ccccc2N1CCCCN1CCN(c2ccc3cc[nH]c3c2)CC1 [Compound 2d, 6-{4-[4-(2-Oxo-3,4-dihydro-2H-quinolin-1-yl)butan-1-yl]piperazin-1-yl}-1H-indole]	–	–	58	inhibition at 0.1 µM [3]: 46%
O=C1CCc2ccccc2N1CCCN1CCN(c2ccc3[nH]ccc3c2)CC1 [Compound 2a, 5-{4-[3-(2-Oxo-3,4-dihydro-2H-quinolin-1-yl)propan-1-yl]piperazin-1-yl}-1H-indole]	0.0032	0.013	–	–
O=C1c2ccccc2CCN1CCCCN1CCN(c2ccc3[nH]ccc3c2)CC1 [Compound 3c]	–	–	56	5-HT2A-binding (% inhibition) [3, 5]: 93% at 100 nM
O=C1CCc2ccccc2N1CCCCN1CCN(c2ccc3[nH]ccc3c2)CC1 (as salt: hydrochloride) [Compound 2b, 5-{4-[4-(2-Oxo-3,4-dihydro-2H-quinolin-1-yl)butan-1-yl]piperazin-1-yl}-1H-indole]	–	–	–	melting point: 233 to 236 °C
O=C1CCc2ccccc2N1CCCN1CC=C(c2ccc3[nH]ccc3c2)CC1 [Compound 2e, 5-{1-[3-(2-Oxo-3,4-dihydro-2H-quinolin-1-yl)propan-1-yl]-3,6-dihydro-2H-pyridin-4-yl}-1H-indole]	0.00097	–	–	IC50 [3]: 0.0066 µM
O=C(CCN1CCN(c2ccc3[nH]ccc3c2)CC1)N1CCc2ccccc2C1 [Compound 5a, 5-{4-[3-(3,4-Dihydro-1H-isoquinolin-2-yl)-3-oxopropan-1-yl]piperazin-1-yl}-1H-indole]	–	–	73	inhibition at 0.1 µM [3]: 29%
O=C1CCc2ccccc2N1CCCCN1CCN(c2ccc3[nH]ccc3c2)CC1 [Compound 2b, 5-{4-[4-(2-Oxo-3,4-dihydro-2H-quinolin-1-yl)butan-1-yl]piperazin-1-yl}-1H-indole]	0.018	0.017	–	–
O=C1CCc2ccccc2N1CCCN1CCC(c2ccc3[nH]ccc3c2)CC1 [Compound 2f, 5-{1-[3-(2-Oxo-3,4-dihydro-2H-quinolin-1-yl)propan-1-yl]piperidin-4-yl}-1H-indole]	0.0016	0.022	–	–
O=C1COc2ccccc2N1CCCCN1CCN(c2ccc3[nH]ccc3c2)CC1 [Compound 3a, 5-{4-[4-(3-Oxo-3,4-dihydro-2H-1,4-benzoxazin-4-yl)butan-1-yl]piperazin-4-yl}-1H-indole]	–	–	56	5-HT2A-binding (% inhibition) [3, 5]: 89% at 100 nM
O=C1CCc2ccccc2N1CCN1CCN(c2ccc3[nH]ccc3c2)CC1 [Compound 1, 5-{4-[2-(2-Oxo-3,4-dihydro-2H-quinolin-1-yl)ethyl]piperazin-1-yl}-1H-indole]	–	0.029	90	–

Further lines, with some results ahead:

IC50 [2] [µM]	IC50 [3, 4] [µM]	SMILES	D4-binding (% inhibition) [2] [% at 50 nM]	other results
0.0026	0.027	c1ccc2c(c1)CCCN2CCCN1CCN(c2ccc3[nH]ccc3c2)CC1 [Compound 4a, 5-{4-[3-(3,4-Dihydro-2H-quinolin-1-yl)propan-1-yl]piperazin-1-yl}-1H-indole]	–	–
–	0.004	O=C(CCCN1CCN(c2ccc3[nH]ccc3c2)CC1)N1CCc2ccccc2C1 [Compound 5b, 5-{4-[4-(3,4-Dihydro-1H-isoquinolin-2-yl)-4-oxobutan-1-yl]piperazin-1-yl}-1H-indole]	81	melting point: 122 to 125 °C
–	0.09	O=C1c2ccccc2CCN1CCCN1CCN(c2ccc3[nH]ccc3c2)CC1 [Compound 3b]	78	–
0.0088	0.019	c1ccc2c(c1)CCCN2CCCN1CCN(c2ccc3[nH]ccc3c2)CC1 [Compound 4b, 5-{4-[3-(3,4-Dihydro-2H-quinolin-1-yl)propan-1-yl]piperazin-1-yl}-1H-indole]	–	–
